Among the data in patent US10131651B2, “[7,6]-fused bicyclic antidiabetic compounds” (Merck Sharp & Dohme Corp., priority 2014, dated 2018) are EC50 values, retold here.

For this experiment, the target named is human GPR40 (Homo sapiens (Human), UniProt O14842). Put plainly: Inositol Phosphate Turnover (IP1) Assay. As to conditions: HEK cells stably expressing human GPR40. It is filed as cell-based. As for the experimental part: Human and mouse GPR40 stable cell-lines were generated in CHO cells stably expressing NFAT BLA (Beta-lactamase). A human GPR40 stable cell-line was generated in HEK cells stably expressing the acquorin expressing reporter. The expression plasmids were transfected using lipofectamine (Life Technologies) following manufacturer's instructions. Stable cell-lines were generated following drug selection.
human GPR40, sequence (O14842 whole entry): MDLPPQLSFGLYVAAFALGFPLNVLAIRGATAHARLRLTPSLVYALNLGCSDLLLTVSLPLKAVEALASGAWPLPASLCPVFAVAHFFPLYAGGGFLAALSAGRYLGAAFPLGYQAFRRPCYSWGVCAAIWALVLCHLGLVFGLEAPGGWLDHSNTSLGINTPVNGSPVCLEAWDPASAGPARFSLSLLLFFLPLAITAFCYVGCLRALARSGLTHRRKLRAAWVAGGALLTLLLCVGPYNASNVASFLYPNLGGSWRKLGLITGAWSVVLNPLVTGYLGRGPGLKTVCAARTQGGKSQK
The assay is performed in 384-well format. HEK cells stably expressing human GPR40 are plated at 15,000 cells per well in growth medium (DMEM/10% fetal calf serum). Cell plates are then incubated 16 hours at 37 degrees in a 5% CO2 incubator.
Measurement of Inositol Phosphate Turnover (IP1) is performed using the CisBio IP-One kit (Part number 62IPAPEB). After the 16 hour incubation, the cells are washed with HEPES buffer and 10 ul of stimulation buffer (prepared as described in the kit) is added to each well. In a separate plate, compounds are diluted in DMSO (400-fold over the final concentration in the assay well) and 25 nl is acoustically transferred to the appropriate well in the assay cell plate. The plates are then incubated for 60 minutes at 37 degrees. 10 ul of detection buffer (also prepared as described in the IP-One kit) is added to each well and the plates are incubated for 60 minutes in the dark. The plates are then read in a Perkin Elmer EnVision or equivalent reader able to measure FRET. Fluorescent ratio of emission at 665 and 620 nm is then converted to IP1 concentration by back calculating from an IP1 standard curve prepared at the time of the assay.
As to `COc1cc(-c2ccc(C3CCCc4ccc([C@H](C5CC5)[C@H](C)C(=O)O)cc4O3)cc2)c(F)cn1` (mixture of isomers) [Example 5, (2S,3R)-3-cyclopropyl-3-((RS)-2-(4-(5-fluoro-2-methoxypyridin-4-yl)phenyl)-2,3,4,5-tetrahydrobenzo[b]oxepin-8-yl)-2-methylpropanoic acid], the EC50 was found to be 3.1 nM.

`COc1cc(-c2ccc(C3CCCc4ccc([C@H](C5CC5)[C@H](C)C(=O)O)cc4O3)nc2)c(F)cn1` (mixture of isomers) [Example 7, (2S,3R)-3-cyclopropyl-3-((RS)-2-(5′-fluoro-2′-methoxy-[3,4′-bipyridin]-6-yl)-2,3,4,5-tetrahydrobenzo[b]oxepin-8-yl)-2-methylpropanoic acid] returned an EC50 of 3 nM.

In turn, `COc1cc(-c2ccc(C3CCCc4ccc([C@H](C5CC5)[C@H](C)C(=O)O)cc4O3)c(F)c2)ccn1` (single isomer, unassigned) [Example 1, (2S,3R)-3-cyclopropyl-3-((R or S)-2-(2-fluoro-4-(2-methoxypyridin-4-yl)phenyl)-2,3,4,5-tetrahydrobenzo[b]oxepin-8-yl)-2-methylpropanoic acid] registered an EC50 of 3.6 nM.

For `COc1cc(-c2ccc(C3CCCc4ccc([C@H](C5CC5)[C@H](C)C(=O)O)cc4O3)c(F)c2)ccn1` (single isomer, unassigned) [Example 2, (2S,3R)-3-cyclopropyl-3-((R or S)-2-(2-fluoro-4-(2-methoxypyridin-4-yl)phenyl)-2,3,4,5-tetrahydrobenzo[b]oxepin-8-yl)-2-methylpropanoic acid], a half-maximal effect (EC50) was put at 14 nM.

In turn, `C[C@H](C(=O)O)[C@H](c1ccc2c(c1)OC(C1CN(Cc3cc(C(F)(F)F)ccc3C(F)(F)F)C1)CCC2)C1CC1` (single isomer, unassigned) [Example 3, (2S, 3R)-3-((R or S)-2-(1-(2,5-bis (trifluoromethyl)benzyl)azetidin-3-yl)-2,3,4,5-tetrahydrobenzo[b]oxepin-8-yl)-3-cyclopropyl-2-methylpropanoic acid] yielded an EC50 of 13 nM.

`C[C@H](C(=O)O)[C@H](c1ccc2c(c1)OC(C1CN(Cc3cc(C(F)(F)F)ccc3C(F)(F)F)C1)CCC2)C1CC1` (single isomer, unassigned) [Example 4, (2S,3R)-3-((R or S)-2-(1-(2,5-bis(trifluoromethyl)-benzyl)azetidin-3-yl)-2,3,4,5-tetrahydrobenzo[b]-oxepin-8-yl)-3-cyclopropyl-2-methylpropanoic acid] displayed an EC50 of 27 nM.

In turn, `COc1cc(-c2ccc(C3CCCc4ccc([C@H](C5CC5)[C@H](C)C(=O)O)cc4O3)cc2)c(F)cn1` (single isomer, unassigned) [Example 6, (2S,3R)-3-cyclopropyl-3-((R or S)-2-(4-(5-fluoro-2-methoxypyridin-4-yl)phenyl)-2,3,4,5-tetrahydrobenzo[b]oxepin-8-yl)-2-methylpropanoic acid] came in with an EC50 of 5.2 nM.

In turn, `COc1cc(-c2ccc(C3CCCc4ccc([C@H](C5CC5)[C@H](C)C(=O)O)cc4O3)nc2)c(F)cn1` (single isomer, unassigned) [Example 8, (2S,3R)-3-cyclopropyl-3-((R or S)-2-(5′-fluoro-2′-methoxy-[3,4′-bipyridin]-6-yl)-2,3,4,5-tetrahydrobenzo[b]oxepin-8-yl)-2-methylpropanoic acid] gave an EC50 of 29 nM.

On to `COc1ccc(F)c(-c2ccc(C3CCCc4ccc([C@H](C5CCC5)[C@H](C)C(=O)O)cc4O3)cc2)c1` (single isomer, unassigned) [Example 10, Sodium (2S,3R)-3-cyclobutyl-3-((R or S)-2-(2′-fluoro-5′-methoxy-[1,1′-biphenyl]-4-yl)-2,3,4,5-tetrahydrobenzo[b]oxepin-8-yl)-2-methylpropanoate], for which the EC50 amounted to 4.6 nM.

In turn, `COc1ccc(F)c(-c2ccc(C3CCCc4ccc([C@H](C5CCC5)[C@H](C)C(=O)O)cc4O3)cc2)c1` (single isomer, unassigned) [Example 11, Sodium (2S,3R)-3-cyclobutyl-3-((R or S)-2-(2′-fluoro-5′-methoxy-[1,1′-biphenyl]-4-yl)-2,3,4,5-tetrahydrobenzo[b]oxepin-8-yl)-2-methylpropanoate] gave an EC50 of 6 nM.

As for `COc1cc(-c2cnc(C3CCCc4ccc([C@H](C5CC5)[C@H](C)C(=O)O)cc4O3)cn2)c(F)cn1` (single isomer, unassigned) [Example 12], the EC50 worked out at 116 nM. Against the preceding molecule, the EC50 is about 19-fold higher.

`COc1cc(-c2cnc(C3CCCc4ccc([C@H](C5CC5)[C@H](C)C(=O)O)cc4O3)cn2)c(F)cn1` (single isomer, unassigned) [Example 13] came in with an EC50 of 684 nM.
